Structures can show the parent of a compound that is named as a salt. Where two headings read alike, the source gives them in different places.
Experiments:
[1] = system: Human colon cancer strain Colo320D.M.; test: Combined use of E7070 and 5-FU in human colon cancer Colo320D.M. xenograft model; settings: for Toxicity Dead/Treated: Colo320D.M. xenograft, nude mice, E7070 30 mg/kg/day QDx5, 5-FU 60 mg/kg/day Q4Dx3
Description: (§1) J Natl Cancer Inst. Jun. 5, 1996;88(11):747-53; (iii) Effects of growth hormone and testosterone on cortical bone formation and bone density in aged orchiectomized rats. Bone. 1999 May;24(5):491-7).

[2] = system: Human non-small cell lung cancer LU-99; settings: for Tx4 (days) mean ± S.D.: time in days for tumor size to attain 4 folds of initial tumor size: LU-99 s.c. in nude mice, E7070 25 mg/kg/day i.v. QDx5, CDDP 7.5 mg/kg/day i.v. single dose, + simultaneous (E7070 day 1-5, CDDP day 1), E7070 → CDDP (day 6), CDDP (day 1) → E7070 (day 2-6)
Description: as §1

[3] = system: Human colon cancer strain HCT15; settings: for Tx4 (days) mean ± S.D.: time in days for tumor size to attain 4 folds of initial tumor size: HCT15 s.c. in nude mice, E7070 30 mg/kg/day i.v. QDx5 (day 1-5), CPT-11 75 mg/kg/day i.v. Q4Dx3 (day 1, 5, 9); for Toxicity Dead/Treated: HCT15 xenograft, nude mice, E7070 30 mg/kg/day QDx5, CPT-11 75 mg/kg/day Q4Dx3
Description: as §1

[4] = system: Human colon cancer strain SW620; test: Combined use of E7070 and CPT-11 in human colon cancer SW620 xenograft model; settings: for Tx4 (days) mean ± S.D.: time in days for tumor size to attain 4 folds of initial tumor size: SW620 s.c. in nude mice, E7070 25 mg/kg/day i.v. QDx5, CPT-11 62.5 mg/kg/day i.v. Q4Dx3, + simultaneous (E7070 day 1-5, CPT-11 day 1, 5, 9), E7070 → CPT-11 (day 6, 10, 14), CPT-11 → E7070 (day 10-14); for Toxicity mRBW (minimum relative body weight) mean: parentheses: day when RBW was minimal
Description: as §1
E7070 alone was intravenously administered once per day for5 days (first to fifth days), while CPT-11 alone was intravenously administered 3 times (once every 4 days, that is, on the first, fifth and ninth days).

[5] = system: Human colon cancer strain HCT15; test: Combined use of E7070 and MMC in human colon cancer HCT15 xenograft model; settings: for Tx4 (days) mean ± S.D.: time in days for tumor size to attain 4 folds of initial tumor size: HCT15 s.c. in nude mice, E7070 25 mg/kg/day i.v. QDx5 (day 1-5; combination row prints 30 mg/kg/day), MMC 4.19 mg/kg/day i.v. single dose (day 1); for Toxicity Dead/Treated: HCT15 xenograft, nude mice, E7070 QDx5, MMC 4.19 mg/kg/day QDx1
Description: as §1

Human breast cancer HBC4 = test: Combined use of E7070 and capecitabine in human breast cancer HBC4 xenograft model; type: in vivo
Description: as §1

[6] = Further anticancer agents examined for synergistic effect in combined use with E7070; settings: used in the compositions of the invention (with E7070); model and data not given
[7] = SW620 xenograft, nude mice, E7070 25 mg/kg/day QDx5, CPT-11 62.5 mg/kg/day Q4Dx3
[8] = LU-99 xenograft, nude mice, E7070 25 mg/kg/day QDx5, CDDP 7.5 mg/kg/day QDx1
[9] = HBC4 xenograft, nude mice, E7070 30.625 mg/kg/day, capecitabine 1.3125 mmol/kg/day

With `O=c1[nH]cc(F)c(=O)[nH]1` [5-FU, 5-fluoro-2,4-(1H,3H)-pyrimidinedione, reference compound] the “Toxicity Dead/Treated” value [1] was 0/6.
For `N.N.[Cl][Pt][Cl]` [CDDP, cis-diamminedichloroplatinum, reference compound], the “Tx4 (days) mean ± S.D.: time in days for tumor size to attain 4 folds of initial tumor size” value (from here on “Tx4 … to attain 4 folds of initial tumor size”) [2] was 10.7 ± 0.5 days.
For `CCc1c2c(nc3ccc(OC(=O)N4CCC(N5CCCCC5)CC4)cc13)-c1cc3c(c(=O)n1C2)COC(=O)[C@]3(O)CC` [CPT-11, [1,4′-Bipiperidine]-1′-carboxylic acid (S)-4,11-diethyl-3,4,12,14-tetrahydro-4-hydroxy-3,14-dioxo-1H-pyrano-[3′,4′:6,7]-indolizino[1,2-b]quinolin-9-yl ester Hydrochloride trihydrate, reference compound], the “Tx4 … to attain 4 folds of initial tumor size” value [3] was 17.8 ± 1.0 days, the “Toxicity Dead/Treated” value [3] was 0/6 and the “Tx4 … to attain 4 folds of initial tumor size” value [4] was 48.7 ± 29.7 days. For the same compound, the “Toxicity Dead/Treated” value [4, 7] was 0/6 and the “Toxicity mRBW (minimum relative body weight) mean” value [4, 7] was 0.99(8).
In the case of `NS(=O)(=O)c1ccc(S(=O)(=O)Nc2cccc3c(Cl)c[nH]c23)cc1` [E7070, N-(3-chloro-1H-indol-7-yl)-4-sulfamoylbenzenesulfonamide], the “Tx4 … to attain 4 folds of initial tumor size” value [3] is reported as 18.7 ± 2.0 days, the “Toxicity Dead/Treated” value [3] is reported as 0/6 and the “Tx4 … to attain 4 folds of initial tumor size” value [2] is reported as 18.2 ± 2.3 days. The “Toxicity Dead/Treated” value [2, 8] was 0/6, the “mRTV (minimum relative tumor volume) mean ± S.D.” value [2, 8] was 0.75 ± 0.16 and the “Tx4 … to attain 4 folds of initial tumor size” value [5] was 12.7 ± 2.2 days. For the same compound, the “Toxicity Dead/Treated” value [5] was 0/6, the “Tx4 … to attain 4 folds of initial tumor size” value [4] was 30.2 ± 6.1 days and the “Toxicity Dead/Treated” value [4, 7] was 0/6. For the same compound, the “Toxicity mRBW (minimum relative body weight) mean” value [4, 7] was 0.98(8), the “mRTV (minimum relative tumor volume) mean ± S.D.” value ([4]; SW620 xenograft, nude mice, E7070 25 mg/kg/day QDx5, CPT-11 62.5 mg/kg/day Q4Dx3, parentheses: day when RTV was minimal) was 0.76 ± 0.42(12) and the “Tx4 … to attain 4 folds of initial tumor size” value ([1]; Colo320D.M. s.c. in nude mice, E7070 30 mg/kg/day i.v. QDx5, 5-FU 60 mg/kg/day i.v. Q4Dx3, + simultaneous (E7070 day 1-5, 5-FU day 1, 5, 9), E7070 → 5-FU (day 6, 10, 14), 5-FU → E7070 (day 10-14)) was 11.2 ± 1.9 days. For the same compound, the “Toxicity Dead/Treated” value [1] was 0/6, the “Tx4 (days): time in days for tumor size to attain 4 folds of initial size” value (Human breast cancer HBC4; HBC4 s.c. in nude mice, E7070 30.625 mg/kg/day (87.5% MTD) once per day for 5 days, capecitabine 1.3125 mmol/kg/day (87.5% MTD) once per day for 14 days, combination: E7070 day 1-5, capecitabine day 6-19) was 50.0 ± 8.1 days and the “CR, complete response: incidence of tumor free mice” value (Human breast cancer HBC4; [9]) was 0/6. For the same compound, the “PR, partial response: incidence of tumor regression (more than 50% of tumor regression)” value (Human breast cancer HBC4; [9]) was 6/6, the “mRTV (minimum relative tumor volume)” value (Human breast cancer HBC4; [9]) was 0.24 ± 0.07 and the “T · C” value (Human breast cancer HBC4; HBC4 xenograft, Tx4 of treated versus control, E7070 30.625 mg/kg/day, capecitabine 1.3125 mmol/kg/day) was 28.0 days.
For `CO[C@@]12[C@H](COC(N)=O)C3=C(C(=O)C(C)=C(N)C3=O)N1C[C@@H]1N[C@@H]12` [MMC, [1aS-(1aα,8β,8aα,8bα)]-6-amino-8-[[(aminocarbonyl)oxy]methyl]1,1a,2,8,8a,8b-hexahydro-8a-methoxy-5-methylazirino[2′,3′:3,4]pyrrolo[1,2-a]indole-4,7-dione, reference compound], the “Tx4 … to attain 4 folds of initial tumor size” value [5] was 16.2 ± 3.4 days and the “Toxicity Dead/Treated” value [5] was 0/6.
For `COc1cccc2c1C(=O)c1c(O)c3c(c(O)c1C2=O)C[C@@](O)(C(=O)CO)C[C@@H]3O[C@H]1C[C@H](N)[C@H](O)[C@H](C)O1` [doxorubicin, 10-[(3-amino-2,3,6-trideoxy-α-L-1yxo-hexopyranosyl)oxy]-7,8,9,10-tetrahydro-6,8,11-trihydroxy-8-(hydroxyacetyl)-1-methoxy-(8S-cis)-5,12-naphthacenedione], the “Antitumor activity when examined for synergistic effect (in words)” value [6] was “excellent antitumor activity”.
In the case of `Nc1ccn([C@@H]2O[C@H](CO)[C@@H](O)C2(F)F)c(=O)n1` [gemcitabine hydrochloride, 2′-deoxy-2′,2′-difluoro-cytidine hydrochloride], the “Antitumor activity when examined for synergistic effect (in words)” value [6] is reported as “excellent antitumor activity”.

Source: patent publication US20030215523A1, “Medicinal compositions for concomitant use as anticancer agent” (priority 2000, published 2003)
